Data published in PubChem BioAssay (NCI).
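The compound was tested at five concentrations on cells cultured in 96-well plates, with a 48-hour exposure period. GI50 is the concentration that inhibits growth by half. The concentration for full growth arrest is given as TGI.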 The source made the active and inactive calls. Rule as the data show it: active = GI50 below about 0.43 µM; inactive = the rest.

How the values were obtained:
Test in all cases: inhibition of tumour cell growth, NCI panel, 48 h
786-0 renal = test system: 786-0 renal
A498 renal = test system: A498 renal
A549 NSCLC = test system: A549 NSCLC
ACHN renal = test system: ACHN renal
CCRF-CEM leukemia = test system: CCRF-CEM leukemia
COLO 205 colon = test system: COLO 205 colon
DU-145 prostate = test system: DU-145 prostate
EKVX NSCLC = test system: EKVX NSCLC
HCT-116 colon = test system: HCT-116 colon
HCT-15 colon = test system: HCT-15 colon
HL-60(TB) leukemia = test system: HL-60(TB) leukemia
HOP-62 NSCLC = test system: HOP-62 NSCLC
HOP-92 NSCLC = test system: HOP-92 NSCLC
HS 578T breast = test system: HS 578T breast
HT29 colon = test system: HT29 colon
IGROV1 ovarian = test system: IGROV1 ovarian
K-562 leukemia = test system: K-562 leukemia
KM12 colon = test system: KM12 colon
LOX IMVI melanoma = test system: LOX IMVI melanoma
M14 melanoma = test system: M14 melanoma
MALME-3M melanoma = test system: MALME-3M melanoma
MCF7 breast = test system: MCF7 breast
MDA-MB-231 breast = test system: MDA-MB-231 breast
MDA-MB-435 = test system: MDA-MB-435
MDA-N = test system: MDA-N
MOLT-4 leukemia = test system: MOLT-4 leukemia
NCI-H226 lung = test system: NCI-H226 lung
NCI-H23 lung = test system: NCI-H23 lung
NCI-H460 lung = test system: NCI-H460 lung
NCI-H522 lung = test system: NCI-H522 lung
NCI/ADR-RES ovarian = test system: NCI/ADR-RES ovarian
OVCAR-4 ovarian = test system: OVCAR-4 ovarian
OVCAR-5 ovarian = test system: OVCAR-5 ovarian
OVCAR-8 ovarian = test system: OVCAR-8 ovarian
PC-3 prostate = test system: PC-3 prostate
RXF 393 renal = test system: RXF 393 renal
SF-268 CNS = test system: SF-268 CNS
SF-295 CNS = test system: SF-295 CNS
SF-539 CNS = test system: SF-539 CNS
SK-MEL-2 melanoma = test system: SK-MEL-2 melanoma
SK-MEL-28 melanoma = test system: SK-MEL-28 melanoma
SK-MEL-5 melanoma = test system: SK-MEL-5 melanoma
SK-OV-3 ovarian = test system: SK-OV-3 ovarian
SN12C renal = test system: SN12C renal
SNB-19 CNS = test system: SNB-19 CNS
SNB-75 CNS = test system: SNB-75 CNS
SW-620 colon = test system: SW-620 colon
T-47D breast = test system: T-47D breast
TK-10 renal = test system: TK-10 renal
U251 CNS = test system: U251 CNS
UACC-257 melanoma = test system: UACC-257 melanoma
UACC-62 melanoma = test system: UACC-62 melanoma
UO-31 renal = test system: UO-31 renal
CAKI-1 renal = test system: CAKI-1 renal
HCC-2998 colon = test system: HCC-2998 colon
OVCAR-3 ovarian = test system: OVCAR-3 ovarian

Q: For `O=C(O)CN1CCN(CC(=O)O)CCN(CC(=O)O)CC1`, which outcome (786-0 renal) is on record?
A: inactive

Q: And the TGI (A498 renal)?
A: > 75.8 µM

Q: And the outcome (A498 renal)?
A: inactive

Q: And the GI50 (A549 NSCLC)?
A: 3550 µM

Q: And the TGI (A549 NSCLC)?
A: > 25.4 µM

Q: What about the outcome (ACHN renal) of the same compound?
A: inactive

Q: What about the TGI (CCRF-CEM leukemia) of the same compound?
A: > 59 µM

Q: What about the outcome (CCRF-CEM leukemia) of the same compound?
A: inactive

Q: What about the GI50 (COLO 205 colon) of the same compound?
A: 4770 µM

Q: And the TGI (COLO 205 colon)?
A: 9.69 µM

Q: What about the outcome (DU-145 prostate) of the same compound?
A: inactive

Q: And the outcome (EKVX NSCLC)?
A: inactive

Q: What about the GI50 (HCT-116 colon) of the same compound?
A: 6750 µM

Q: And the GI50 (HCT-15 colon)?
A: 9440 µM

Q: And the TGI (HL-60(TB) leukemia)?
A: 4.74 µM

Q: And the outcome (HOP-62 NSCLC)?
A: inactive

Q: What about the outcome (HOP-92 NSCLC) of the same compound?
A: inactive

Q: What about the outcome (HS 578T breast) of the same compound?
A: inactive

Q: And the GI50 (HT29 colon)?
A: 4400 µM

Q: What about the GI50 (IGROV1 ovarian) of the same compound?
A: 7100 µM

Q: What about the TGI (K-562 leukemia) of the same compound?
A: > 21.9 µM

Q: What about the GI50 (KM12 colon) of the same compound?
A: 5450 µM

Q: And the outcome (LOX IMVI melanoma)?
A: inactive

Q: What about the GI50 (M14 melanoma) of the same compound?
A: 10500 µM

Q: And the outcome (MALME-3M melanoma)?
A: inactive

Q: What about the GI50 (MCF7 breast) of the same compound?
A: 6360 µM

Q: And the outcome (MDA-MB-231 breast)?
A: inactive

Q: What about the outcome (MDA-MB-435) of the same compound?
A: inactive

Q: What about the GI50 (MDA-N) of the same compound?
A: 18500 µM

Q: And the outcome (MOLT-4 leukemia)?
A: inactive

Q: What about the outcome (NCI-H226 lung) of the same compound?
A: inactive

Q: What about the GI50 (NCI-H23 lung) of the same compound?
A: 76100 µM

Q: What about the GI50 (NCI-H460 lung) of the same compound?
A: 4560 µM

Q: What about the GI50 (NCI-H522 lung) of the same compound?
A: 8060 µM

Q: And the TGI (NCI-H522 lung)?
A: > 70.8 µM

Q: What about the TGI (NCI/ADR-RES ovarian) of the same compound?
A: > 30.9 µM

Q: What about the outcome (NCI/ADR-RES ovarian) of the same compound?
A: inactive

Q: What about the outcome (OVCAR-4 ovarian) of the same compound?
A: inactive

Q: What about the outcome (OVCAR-5 ovarian) of the same compound?
A: inactive

Q: And the GI50 (OVCAR-8 ovarian)?
A: 22300 µM

Q: What about the TGI (OVCAR-8 ovarian) of the same compound?
A: > 24.1 µM

Q: What about the GI50 (PC-3 prostate) of the same compound?
A: 9040 µM

Q: What about the GI50 (RXF 393 renal) of the same compound?
A: 9940 µM

Q: And the outcome (SF-268 CNS)?
A: inactive

Q: What about the outcome (SF-295 CNS) of the same compound?
A: inactive

Q: And the outcome (SF-539 CNS)?
A: inactive

Q: And the GI50 (SK-MEL-2 melanoma)?
A: 16700 µM

Q: What about the outcome (SK-MEL-28 melanoma) of the same compound?
A: inactive

Q: And the GI50 (SK-MEL-5 melanoma)?
A: 6790 µM

Q: What about the TGI (SK-MEL-5 melanoma) of the same compound?
A: > 23.2 µM

Q: And the outcome (SK-OV-3 ovarian)?
A: inactive

Q: What about the outcome (SN12C renal) of the same compound?
A: inactive

Q: What about the outcome (SNB-19 CNS) of the same compound?
A: inactive

Q: What about the outcome (SNB-75 CNS) of the same compound?
A: inactive

Q: What about the outcome (SW-620 colon) of the same compound?
A: inactive

Q: And the outcome (T-47D breast)?
A: inactive

Q: And the GI50 (TK-10 renal)?
A: 33100 µM

Q: What about the outcome (U251 CNS) of the same compound?
A: inactive

Q: What about the GI50 (UACC-257 melanoma) of the same compound?
A: 71500 µM

Q: And the GI50 (UACC-62 melanoma)?
A: 8700 µM

Q: And the outcome (UO-31 renal)?
A: inactive

Q: With `Cc1ccc(/C=C2\CN(C)CC3=C2NC(=S)NC3c2ccc(C)cc2)cc1` (stereo not given) as the compound, how does the TGI (786-0 renal) read?
A: 77.8 µM

Q: What about the TGI (A498 renal) of the same compound?
A: > 100 µM

Q: What about the TGI (A549 NSCLC) of the same compound?
A: > 100 µM

Q: What about the TGI (ACHN renal) of the same compound?
A: > 100 µM

Q: What about the TGI (CAKI-1 renal) of the same compound?
A: > 100 µM

Q: And the TGI (CCRF-CEM leukemia)?
A: 82.4 µM

Q: And the TGI (COLO 205 colon)?
A: 46 µM

Q: What about the TGI (DU-145 prostate) of the same compound?
A: > 100 µM

Q: And the TGI (EKVX NSCLC)?
A: > 100 µM

Q: What about the TGI (HCC-2998 colon) of the same compound?
A: 78.9 µM

Q: What about the TGI (HCT-116 colon) of the same compound?
A: 60.1 µM

Q: And the TGI (HCT-15 colon)?
A: > 100 µM

Q: And the TGI (HL-60(TB) leukemia)?
A: 61.4 µM

Q: What about the TGI (HOP-62 NSCLC) of the same compound?
A: > 100 µM

Q: And the TGI (HOP-92 NSCLC)?
A: 82.8 µM

Q: And the TGI (HS 578T breast)?
A: > 100 µM

Q: And the TGI (HT29 colon)?
A: 80.4 µM

Q: What about the TGI (IGROV1 ovarian) of the same compound?
A: > 100 µM

Q: What about the TGI (K-562 leukemia) of the same compound?
A: 56.9 µM

Q: What about the TGI (KM12 colon) of the same compound?
A: 39 µM

Q: And the TGI (LOX IMVI melanoma)?
A: > 100 µM

Q: What about the TGI (M14 melanoma) of the same compound?
A: > 100 µM

Q: And the TGI (MALME-3M melanoma)?
A: > 100 µM

Q: What about the TGI (MCF7 breast) of the same compound?
A: 72.3 µM

Q: What about the TGI (MDA-MB-231 breast) of the same compound?
A: > 100 µM

Q: And the TGI (MDA-MB-435)?
A: 28.1 µM

Q: And the TGI (MDA-N)?
A: 36.7 µM

Q: What about the TGI (NCI-H226 lung) of the same compound?
A: > 100 µM

Q: What about the TGI (NCI-H23 lung) of the same compound?
A: > 100 µM

Q: What about the TGI (NCI-H460 lung) of the same compound?
A: > 100 µM

Q: What about the TGI (NCI-H522 lung) of the same compound?
A: > 100 µM

Q: What about the TGI (NCI/ADR-RES ovarian) of the same compound?
A: 68 µM

Q: What about the TGI (OVCAR-3 ovarian) of the same compound?
A: 62.5 µM

Q: What about the TGI (OVCAR-4 ovarian) of the same compound?
A: 67.1 µM

Q: And the TGI (OVCAR-5 ovarian)?
A: > 100 µM

Q: What about the TGI (OVCAR-8 ovarian) of the same compound?
A: > 100 µM

Q: What about the TGI (PC-3 prostate) of the same compound?
A: > 100 µM

Q: What about the TGI (RXF 393 renal) of the same compound?
A: > 100 µM

Q: And the TGI (SF-268 CNS)?
A: > 100 µM

Q: What about the TGI (SF-295 CNS) of the same compound?
A: > 100 µM

Q: And the TGI (SF-539 CNS)?
A: > 100 µM

Q: What about the TGI (SK-MEL-2 melanoma) of the same compound?
A: > 100 µM

Q: And the TGI (SK-MEL-28 melanoma)?
A: > 100 µM

Q: What about the TGI (SK-MEL-5 melanoma) of the same compound?
A: > 100 µM

Q: And the TGI (SK-OV-3 ovarian)?
A: > 100 µM

Q: What about the TGI (SN12C renal) of the same compound?
A: > 100 µM

Q: And the TGI (SNB-19 CNS)?
A: > 100 µM

Q: And the TGI (SNB-75 CNS)?
A: 68 µM

Q: And the TGI (SW-620 colon)?
A: > 100 µM

Q: What about the TGI (T-47D breast) of the same compound?
A: > 100 µM

Q: And the TGI (U251 CNS)?
A: > 100 µM

Q: And the TGI (UACC-257 melanoma)?
A: 62 µM

Q: What about the TGI (UACC-62 melanoma) of the same compound?
A: > 100 µM

Q: What about the TGI (UO-31 renal) of the same compound?
A: > 100 µM
